According to patent publication US20120264830A1, “CHONDROITIN SULFATE-POLYCAPROLACTONE COPOLYMER, METHOD FOR PREPARING THE SAME AND APPLICATION THEREOF” (KAOHSIUNG MEDICAL UNIVERSITY, priority 2011, published 2012):

Tested on: lung cancer cell CRL-5802
Test: Cytotoxicity test of the medical composition and of camptothecin (MTT)
Type: cell-based
Conditions: CRL-5802 cells, camptothecin concentration 1 μg/mL, treatment time 24 hours
Experimental: 5000 cells/well of CRL-5802 were placed in a 96-well plate containing 100 μL of DMEM, followed by cultivation for 24 hours at 37° C. and 5% CO2. The cell culture medium was periodically replaced during the cultivation period. Thereafter, the medical composition described in the section of “Preparation of medical composition” was mixed with DMEM to prepare an original solution having a concentration of 250 μg/mL (the concentration of camptothecin was 10 μg/mL). The original solution was diluted with DMEM to obtain six diluted solutions such that the concentrations of camptothecin in the six diluted solutions were respectively 4 μg/mL, 2 μg/mL, 1 μg/mL, 0.2 μg/mL, 0.1 μg/mL and 0.04 μg/mL. The original solution and the six diluted solutions were added into the respective wells containing cell s such that the final concentrations of camptothecin were adjusted to 5 μg/mL, 2 μg/mL, 1 μg/mL, 0.5 μg/mL, 0.1 μg/mL, 0.05 μg/mL, and 0.02 μg/mL respectively (experimental groups). The cells in the control group were cultured with DMEM without addition of the medical composition. The cells were further cultivated for 24 hours. […] The absorbance of each of the wells containing cells at 490 nm was recorded, thereby calculating the cell survival rate based on the aforesaid equation. […]

## CC[C@@]1(O)C(=O)OCc2c1cc1n(c2=O)Cc2cc3ccccc3nc2-1 [camptothecin]
  cell survival rate: 30%
